Reference: patent US9012166B2, “Method for assaying histone methylation enzyme activity” (Kyushu Institute of Technology, priority 2010, dated 2015)

Tests used:
Type in all cases: biochemical
trypsin [1] = assay: Mixing assay of substrate compound with peptidase (trypsin), AMC fluorescence; conditions: 1,000 μM BocLys(Me)nMCA and trypsin; λex 390 nm, λem 460 nm
Method: (§1) Distilled water was added to 10 μL of 2×HMT buffer (100 mM Tris-HCl (pH 8.5), 20 mM MgCl2, 40 mM KCl, 20 mM 2-mercaptoethanol, 500 mM sucrose) and 1 μL of a BocLysMCA solution to adjust the total volume to 20 μL. To the resultant solution was added 30 μL of a peptidase solution (20 mg/mL trypsin or 20 mAU/mL lysyl endopeptidase), which was then mixed and incubated at 37° C. for 15 minutes. Then, the fluorescence intensity of the solution was measured at an excitation wavelength (λex) of 390 nm and a fluorescence wavelength (λem) of 460 nm. The wavelength is a wavelength for detecting AMC (7-amino-4-methylcoumarin) released by the cleavage of the amide bond between Lys and MCA of BocLysMCA. The fluorescence intensity of AMC was similarly measured by performing a mixing assay by the same method as the above method except for using monomethylated BocLysMCA (i.e., “BocLys(Me)MCA”), dimethylated BocLysMCA (i.e., “BocLys(Me)2MCA”), or trimethylated BocLysMCA (i.e., “BocLys(Me)3MCA”) in place of BocLysMCA.

lysyl endopeptidase [2] = biological target: T1, lysyl endopeptidase (Achromobacter lyticus, UniProt P15636); assay: Mixing assay of substrate compound with peptidase (lysyl endopeptidase), AMC fluorescence; conditions: 1,000 μM BocLys(Me)nMCA and lysyl endopeptidase; λex 390 nm, λem 460 nm
Method: as §1

trypsin [3] = assay: LC/MS analysis of reaction between substrate compound and trypsin; conditions: Example 3; 37° C., 15 minutes
Method: (§2) Distilled water was added to 10 μL of 2×HMT buffer (100 mM Tris-HCl (pH 8.5), 20 mM MgCl2, 40 mM KCl, 20 mM 2-mercaptoethanol, 500 mM sucrose) and 1 μL of a BocLysMCA solution to adjust the total volume to 20 μL. To the resultant solution was added 30 μL of a peptidase solution (20 mg/mL trypsin or 20 mAU/mL lysyl endopeptidase), which was then mixed and incubated at 37° C. for 15 minutes. Then, the solution was applied to a liquid chromatograph mass spectrometer (LC/MS) for analysis. Analysis was performed by the same method as that for the above analysis except for using monomethylated BocLysMCA (i.e., “BocLys(Me)MCA”), dimethylated BocLysMCA (i.e., “BocLys(Me)2MCA”), or trimethylated BocLysMCA (i.e., “BocLys(Me)3MCA”) in place of BocLysMCA. Analysis was also carried out by the same method except for using, in place of the above-described peptidase solution, an equal volume of distilled water.

lysyl endopeptidase [4] = biological target: T1, lysyl endopeptidase; assay: LC/MS analysis of reaction between substrate compound and lysyl endopeptidase; conditions: Example 3; 37° C., 15 minutes
Method: as §2

G9a (GST-mG9a) = biological target: T2, G9a (GST-mG9a) (Mus musculus, UniProt Q9Z148); assay: Assay for measuring histone methyltransferase activity using peptidyl MCA, inhibitor evaluation with G9a; conditions: Example 9; Ac-histone H3 (1-9)-MCA; AMC fluorescence λex 390 nm/λem 460 nm; FIG. 19; read-out: IC50 for G9a
T2 sequence (Q9Z148 1-1263): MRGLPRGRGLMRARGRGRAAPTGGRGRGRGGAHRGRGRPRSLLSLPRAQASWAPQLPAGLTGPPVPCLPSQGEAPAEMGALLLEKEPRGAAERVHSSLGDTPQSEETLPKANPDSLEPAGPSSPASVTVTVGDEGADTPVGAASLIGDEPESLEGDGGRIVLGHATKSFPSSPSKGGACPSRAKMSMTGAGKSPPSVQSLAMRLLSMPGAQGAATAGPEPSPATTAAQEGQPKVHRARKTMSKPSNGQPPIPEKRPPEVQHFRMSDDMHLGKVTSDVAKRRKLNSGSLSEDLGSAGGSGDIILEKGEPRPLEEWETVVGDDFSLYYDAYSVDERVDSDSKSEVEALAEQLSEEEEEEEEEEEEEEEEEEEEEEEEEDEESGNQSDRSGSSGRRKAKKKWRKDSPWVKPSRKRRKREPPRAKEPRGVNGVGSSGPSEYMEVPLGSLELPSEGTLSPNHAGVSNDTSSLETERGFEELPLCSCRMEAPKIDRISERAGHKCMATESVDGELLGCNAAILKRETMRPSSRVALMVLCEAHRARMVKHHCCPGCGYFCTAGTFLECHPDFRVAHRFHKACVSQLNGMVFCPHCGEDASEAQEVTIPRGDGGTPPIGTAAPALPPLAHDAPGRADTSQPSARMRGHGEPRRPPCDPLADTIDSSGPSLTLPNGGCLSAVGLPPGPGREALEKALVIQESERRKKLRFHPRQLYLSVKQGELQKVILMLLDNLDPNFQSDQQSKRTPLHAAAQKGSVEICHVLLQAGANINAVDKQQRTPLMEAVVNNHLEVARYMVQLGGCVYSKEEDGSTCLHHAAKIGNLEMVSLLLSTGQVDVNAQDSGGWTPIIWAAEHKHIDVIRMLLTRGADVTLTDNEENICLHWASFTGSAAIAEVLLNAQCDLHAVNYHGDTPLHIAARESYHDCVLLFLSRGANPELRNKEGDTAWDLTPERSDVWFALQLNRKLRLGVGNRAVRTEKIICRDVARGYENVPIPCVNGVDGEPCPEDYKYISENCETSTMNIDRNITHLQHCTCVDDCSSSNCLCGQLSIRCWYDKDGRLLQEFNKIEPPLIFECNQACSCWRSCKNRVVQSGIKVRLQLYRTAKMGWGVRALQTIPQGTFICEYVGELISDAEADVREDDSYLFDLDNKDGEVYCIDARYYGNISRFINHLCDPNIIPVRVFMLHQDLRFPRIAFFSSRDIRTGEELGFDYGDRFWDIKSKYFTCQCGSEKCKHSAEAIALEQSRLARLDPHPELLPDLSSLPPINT
Method: When G9a was adopted as a histone methyltransferase, the following method was used. 10 μL of 2×HMT buffer (100 mM Tris-HCl (pH 8.5), 20 mM MgCl2, 40 mM KCl, 20 mM 2-mercaptoethanol, 500 mM sucrose), 0.4 μL of a BSA solution (150 μg/mL), 2 μL of GST-mG9a (0, 0.5 μg/μL), 1 μL of gliotoxin (any of various concentrations) and 2.6 μL of distilled water were mixed and then incubated at room temperature for 1 hour. Then, 2 μL of SAM (10 mM) and 2 μL of a peptidyl MCA (Ac-histone H3 (1-9)-MCA) solution (0.6 mM) were added thereto, which was then incubated at 37° C. for 1 hour. Thereafter, 30 μL of a trypsin solution (20 mg/mL) was added thereto, followed by incubation at 37° C. for 15 minutes. Then, the fluorescence intensity of the solution was measured at an excitation wavelength (λex) of 390 nm and a fluorescence wavelength (λem) of 460 nm. The final concentration of GST-mG9a during the measurement of fluorescence intensity was 0.05 μg/μL. The results of the assay for measuring histone methyltransferase activity are shown in the middle panel of FIG. 18.
The rate of the inhibition of methylation by gliotoxin was calculated from the results in the left panel and the middle panel of FIG. 18. Specifically, the value (%) was calculated which was obtained by dividing “a value obtained by subtracting “the fluorescence intensity of AMC when peptidase was added but gliotoxin was not added” from “the fluorescence intensity of AMC when both peptidase and gliotoxin were added”” by “a value obtained by subtracting “the fluorescence intensity of AMC when peptidase was added but gliotoxin was not added” from “the fluorescence intensity of AMC when no peptidase or gliotoxin was added”” and multiplying the resultant value by 100. The rate (%) of the inhibition of methylation by gliotoxin is shown in the right panel of FIG. 18.
Specifically, the assay for measuring histone methyltransferase activity was carried out by the same method as the method using G9a […] in Example 8 except for using S-Adenosyl-L-homocysteine (SAH) in place of gliotoxin. SAH is a by-product of the methylation reaction and is known to inhibit histone methyltransferase in a negative feedback manner. […] The rate (%) of the inhibition of methylation by SAH was calculated from the results in the left panel of FIG. 19. The results are shown in the right panel of FIG. 19.
When G9a was adopted as a histone methyltransferase, the following method was used. […] Then, the fluorescence intensity of the solution was measured at an excitation wavelength (λex) of 330 nm and a fluorescence wavelength (λem) of 380 nm or at an excitation wavelength (λex) of 390 nm and a fluorescence wavelength (λem) of 460 nm. The final concentration of GST-mG9a during the measurement of fluorescence intensity was 0 μg/μL or 0.05 μg/μL.

T1 sequence (P15636 206-473 limits assumed, species assumed): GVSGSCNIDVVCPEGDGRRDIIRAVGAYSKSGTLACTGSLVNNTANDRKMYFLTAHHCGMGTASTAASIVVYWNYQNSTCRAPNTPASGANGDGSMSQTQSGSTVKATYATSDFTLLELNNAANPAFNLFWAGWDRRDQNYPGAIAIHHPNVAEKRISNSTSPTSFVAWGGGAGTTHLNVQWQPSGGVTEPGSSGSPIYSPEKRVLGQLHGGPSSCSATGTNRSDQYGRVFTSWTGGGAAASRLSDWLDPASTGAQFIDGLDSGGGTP

For Cc1cc(=O)oc2cc(NC(=O)[C@H](CCCCN(C)C)NC(=O)OC(C)(C)C)ccc12 [BocLys(Me)2MCA, dimethylated BocLysMCA], the “fluorescence intensity of AMC when the fluorescence intensity for BocLysMCA was set to 100%” value (“fluorescence intensity of AMC … to 100%” below) (trypsin [1]) was 0.12%, the “fluorescence intensity of AMC … to 100%” value (lysyl endopeptidase [2]) was 0.053% and the “hydrolysis by trypsin (LC/MS peaks)” value (trypsin [3]) was “almost no occurrence of hydrolysis”. The “hydrolysis by lysyl endopeptidase (LC/MS peaks)” value (lysyl endopeptidase [4]) was “almost no occurrence of hydrolysis”.
Cc1cc(=O)oc2cc(NC(=O)[C@H](CCCC[N+](C)(C)C)NC(=O)OC(C)(C)C)ccc12 [BocLys(Me)3MCA, trimethylated BocLysMCA] was tested, and the “fluorescence intensity of AMC … to 100%” value (trypsin [1]) was 0.24%, the “fluorescence intensity of AMC … to 100%” value (lysyl endopeptidase [2]) was 0.25% and the “hydrolysis by trypsin (LC/MS peaks)” value (trypsin [3]) was “almost no occurrence of hydrolysis”. The “hydrolysis by lysyl endopeptidase (LC/MS peaks)” value (lysyl endopeptidase [4]) was “almost no occurrence of hydrolysis”.
With CNCCCC[C@H](NC(=O)OC(C)(C)C)C(=O)Nc1ccc2c(C)cc(=O)oc2c1 [BocLys(Me)MCA, monomethylated BocLysMCA] the “fluorescence intensity of AMC … to 100%” value (trypsin [1]) was 2.7%, the “fluorescence intensity of AMC … to 100%” value (lysyl endopeptidase [2]) was 0.096% and the “hydrolysis by trypsin (LC/MS peaks)” value (trypsin [3]) was “almost no occurrence of hydrolysis”. For the same molecule, the “hydrolysis by lysyl endopeptidase (LC/MS peaks)” value (lysyl endopeptidase [4]) was “almost no occurrence of hydrolysis”.
Molecule Nc1ncnc2c1ncn2[C@@H]1O[C@H](CSCC[C@H](N)C(=O)O)[C@@H](O)[C@H]1O [SAH, S-Adenosyl-L-homocysteine] has an IC50 (G9a (GST-mG9a)) of 490 µM.
